According to BindingDB's records for doi:10.7270/Q22F7KVM (The Scripps Research Institute Molecular Screening Center, 2009):
pIC50: −log10 of the molar value.

Molecular target: T1, Guanyl-specific ribonuclease T1 (Aspergillus oryzae (strain ATCC 42149 / RIB 40), UniProt P00651)
T1 sequence (P00651 whole entry): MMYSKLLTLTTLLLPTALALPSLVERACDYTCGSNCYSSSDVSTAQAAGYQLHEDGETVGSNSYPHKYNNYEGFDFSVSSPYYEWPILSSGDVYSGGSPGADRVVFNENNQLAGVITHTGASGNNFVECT
Experiment: inhibition of ribonuclease T1 activity – biochemical, fluorescence polarization, 1536-well, counter-screen for TPT1 inhibitor project, dose response (AID 2167)

Compound: Cc1ccc2nc(N=NCc3ccc([N+](=O)[O-])o3)nc(-c3ccccc3)c2c1
- pIC50: < 4.25
